Laboratory results published in patent publication US20240228570A9, “PLATFORM TECHNOLOGY FOR TREATMENT OF INFLAMMATORY, IMMUNOLOGICAL AND/OR AUTOIMMUNOLOGICAL DISEASES” (ellennbe GmbH, priority 2021, published 2024).

Legend:
[1] = Adverse side effects, intolerances, incompatibilities in treated subjects and patients; assay type: in vivo, human; conditions: for earlier treatment with TNF-α inhibitors (patient history): Patient 12, ankylosing spondylitis; for adverse effects of earlier or basic treatment (patient history): Patient 7, rheumatoid arthritis/synovitis
[2] = system: inflammatory disease, immunological disease and/or autoimmunological disease; test: Treatment of patients: condition as stated by patient and physician (pain, fatigue, daily life, duration of effect, relapses); assay type: in vivo, human
Protocol: All patients treated in the following Inventive Examples, Reference Examples and Comparative Examples were selected solely based on their diagnosis without performing a preselection in view of other parameters.
Annotation to the Tables 8A and B and 9 to 10: Patients were usually examined and treated in the same session. The success of the treatment or the effect thereof was then determined in the following session, usually one week later, and the next treatment performed as indicated in the tables.

[3] = system: perfusion of the skin; conditions: cited from earlier work

Molecule	earlier treatment with TNF-α inhibitors (patient history) [1]	adverse effects of earlier or basic treatment (patient history) [1]	further results
Enbrel®	accompanied by strong adverse side effects and hence, not successful		
CCN(CCO)CCCC(C)Nc1ccnc2cc(Cl)ccc12.O=S(=O)(O)O (stereo not shown) [Quensyl®, hydroxychloroquin sulphate]		can cause irreversible eye damage with long-term use	
tocilizumab: IL-6 inhibitor			effectiveness of earlier or basic treatment (patient history) ([2]; Patient 7, rheumatoid arthritis/synovitis, before or beside the treatment of IE 7): only partially efficient
CN(Cc1cnc2nc(N)nc(N)c2n1)c1ccc(C(=O)N[C@@H](CCC(=O)O)C(=O)O)cc1 [MTX, methotrexate]		severe adverse effects (tendency to fibrosis in the lungs and sinusitis)	
COC(=O)c1cccnc1 [MN, methyl nicotinate]			perfusion response of the skin ([3]; 50 μl of 20 mmol/l MN topical, healthy subjects, Laser Speckle Contrast Imager): reproducible perfusion response; time course of the perfusion increase ([3]; topical application of MN, increase occurs a few minutes after application): reaches a stable plateau phase after five minutes
Simponi®: biologic, golimumab			effect of earlier treatment with biologics (patient's report) ([2]; Patient 11, ankylosing spondylitis, within half a year the biologics lost their effect): had little effect from the outset
Symponi®: TNF-α inhibitor	accompanied by strong adverse side effects and hence, not successful		
Remicade®: TNF-α inhibitor	accompanied by strong adverse side effects and hence, not successful		
CC[C@@H]1CN(C(=O)NCC(F)(F)F)C[C@@H]1c1cnc2cnc3[nH]ccc3n12 [upadacitinib]		severe adverse effects (tendency to fibrosis in the lungs and sinusitis)	
